Laboratory results from patent US20230119764A1, “APPLICATION OF DIMETHYL BERBAMINE COMPOUND IN INHIBITION OF SARS-COV-2” (priority 2020, published 2023).
Entries after “also recorded” stand apart in the source; their conditions may differ. Where two headings read alike, the source gives them in different places.

What was measured:
[1] = system: SARS-CoV-2 virus (nCoV-2019BetaCoV/Wuhan/WIV04/2019 isolate); assay: microbe, parasite or virus in culture; assay type: cell-based; conditions: for EC50: Severe acute respiratory syndrome coronavirus 2, Vero C1008, Example 2, no drug pretreatment, read-out: EC50
[2] = system: SARS-CoV-2 virus (nCoV-2019BetaCoV/Wuhan/WIV04/2019 isolate); assay: microbe, parasite or virus in culture; assay type: cell-based; conditions: for Copy number of viral genome (MOI = 0.01): MOI 0.01, Vero E6 supernatant; for Copy number of viral genome (MOI = 0.01) / Copy number of viral genome (MOI = 0.05): 48 h, copy number per milliliter; for Copy number of viral genome (MOI = 0.05): MOI 0.05, Vero E6 supernatant; for EC50: Severe acute respiratory syndrome coronavirus 2, Vero C1008, Example 1, drug pretreatment 1 hour, read-out: EC50
SARS-CoV-2 virus = conditions: previous studies, Wang et al., 2020; cited from earlier work
[3] = Drug cytotoxicity on cells, CellTiter-Glo kit; assay type: cell-based; conditions: African green monkey; Vero-E6 cells, 24 hours; unit inferred
Method: (§1) 1.5.1 Vero E6 cell culture: 0.1 ml of 0.25% trypsin, 5 ml of 0.02% EDTA were added to a culture flask full of cells, the digestion was carried out at 37° C. for 5 minutes, then the digestion solution was discarded, the cell culture solution was added and then mixed by pipetting up-down. The cells were subcultured at 1:3, reached confluence within 3 days, formulated into 100,000 cells per ml, inoculated to a 96-well cell culture plate, 0.1 ml per well, and cultured at 37° C., 5% CO2 for 24 hours, and the cells grew into monolayer was used for experiment.
(§2) 1.5.2 Experiment of Drug Cytotoxicity on Cells:
(§3) The detection of drug cytotoxicity was determined using CellTiter-Glo kit (Promega). Specific steps were as follows:
(§4) (1) 1×10^4 Vero-E6 cells were inoculated in a 96-well plate and cultured at 37° C. for 8 hours.
(§5) (2) The stock solution of drug was diluted with MEM medium containing 2% FBS to the desired concentration, the original medium in the 96-well plate was discarded, and 100 μL of the drug-containing MEM medium was taken and added to the corresponding wells, so that the final concentrations of drug in the wells were those shown in Tables 1 to 3, respectively, and three replicate wells were made for each concentration. At the same time, a vehicle control (adding DMSO or PBS, and 2% FBS-containing MEM medium without drug to the cell wells) and a blank control (adding DMSO and 2% FBS-containing MEM medium to the wells without cells) were set. After the addition of drug, the cells were incubated at 37° C. for 24 hours.
(§6) (3) 100 μL of CellTiter-Glo solution (Promega) was added to the wells to be tested, and mixed by shaking for 2 min to fully lyse the cells, incubated at room temperature for 10 minutes, and readings of chemiluminescence signals […] were obtained on a microplate reader (purchased from Molecular Devices, model: SpectraMax M5). The cell viability was calculated by taking the readings into the following formula:
(§7) Cell viability (%)=(A(drug treatment group)−A(blank control))/(A(vehicle control)−A(blank control))×100%
(§8) where A represented the reading on the microplate reader.

Vero-E6 cells = assay: Drug cytotoxicity on cells, CellTiter-Glo kit; assay type: cell-based; conditions: Vero-E6, 24 hours
Method: as §1, §2, §3, §4, §5, §6, §7, §8

## CCN(CC)CCCC(C)Nc1ccnc2cc(Cl)ccc12 (stereo not drawn) [Chloroquine phosphate, chloroquine phosphate]
[1]; Example 2, drug added after virus infection of cells
  Inhibition of SARS-CoV-2 (in words): obvious inhibitory effects; also recorded: inhibitory activity
[1]; MOI 0.01, Vero E6
  EC50: 4.52 µM
[1]; MOI 0.05, Vero E6
  EC50: 3.63 µM
[2]; 0.21 μM
  Copy number of viral genome (MOI = 0.01): 3451032833
  Copy number of viral genome (MOI = 0.05): 5871676583
[2]; 0.62 μM
  Copy number of viral genome (MOI = 0.01): 2407772083
  Copy number of viral genome (MOI = 0.05): 5663562000
[2]; 1.85 μM
  Copy number of viral genome (MOI = 0.01): 1500455250
  Copy number of viral genome (MOI = 0.05): 4521430250
[2]; 5.56 μM
  Copy number of viral genome (MOI = 0.01): 692991541
  Copy number of viral genome (MOI = 0.05): 1814432458
[2]; 16.67 μM
  Copy number of viral genome (MOI = 0.01): 11907226
  Copy number of viral genome (MOI = 0.05): 52973263
[2]; 50 μM
  Copy number of viral genome (MOI = 0.01): 1019575
  Copy number of viral genome (MOI = 0.05): 1914748
[2]; Example 1, in vitro, Vero E6
  Inhibition of SARS-CoV-2 (in words): obvious inhibitory effects; also recorded: inhibitory activity
[2]; MOI 0.01, Vero E6
  EC50: 1.54 µM
[2]; MOI 0.05, Vero E6
  EC50: 3.77 µM
SARS-CoV-2 virus
  Inhibition of replication of SARS-CoV-2 virus (in words): can effectively inhibit the replication
[3]
  CC50 at 24 h: 92.9 µM
Vero-E6 cells; 3.70 μM
  Cell viability (% of vehicle control): 93.26 % of vehicle control
Vero-E6 cells; 11.11 μM
  Cell viability (% of vehicle control): 90.60 % of vehicle control
Vero-E6 cells; 33.33 μM
  Cell viability (% of vehicle control): 72.67 % of vehicle control
Vero-E6 cells; 66.67 μM
  Cell viability (% of vehicle control): 68.35 % of vehicle control
Vero-E6 cells; 100 μM
  Cell viability (% of vehicle control): 44.84 % of vehicle control
Vero-E6 cells; 200 μM
  Cell viability (% of vehicle control): 41.01 % of vehicle control
Vero-E6 cells; 300 μM
  Cell viability (% of vehicle control): 0.63 % of vehicle control
